Measured values taken from the NIST ThermoML archive (doi:10.1021/acs.jced.8b00358).
Numbers after ± are expanded uncertainties.

Columns and labels:
[1] = molar heat capacity at constant pressure; conditions: 83 kPa, Liquid, DSC
[2] = 83 kPa, Liquid; for speed of sound: Frequency=3 MHz, Single path-length method; for mass density: Vibrating tube method

CCCCC(=O)OCC(COC(=O)CCCC)(COC(=O)CCCC)COC(=O)CCCC [pentaerythritol tetrapentanoate]
Conditions | mass density [kg/m3] | molar heat capacity at constant pressure [J/K/mol] | speed of sound [m/s]
[1], 362.15 K | – | 922.54 ± 37 | –
[1], 363.15 K | – | 923.96 ± 37 | –
[1], 364.14 K | – | 925.37 ± 37 | –
[1], 365.14 K | – | 926.79 ± 37 | –
[1], 366.15 K | – | 927.74 ± 37 | –
[1], 367.14 K | – | 929.16 ± 37 | –
[1], 368.14 K | – | 930.57 ± 37 | –
[1], 369.14 K | – | 931.99 ± 37 | –
[1], 370.14 K | – | 933.41 ± 37 | –
[1], 371.15 K | – | 934.35 ± 37 | –
[1], 372.14 K | – | 935.77 ± 37 | –
[1], 373.14 K | – | 937.19 ± 37 | –
[1], 374.15 K | – | 938.61 ± 37 | –
[1], 375.14 K | – | 939.55 ± 38 | –
[1], 376.14 K | – | 940.97 ± 38 | –
[1], 377.14 K | – | 942.39 ± 38 | –
[1], 378.15 K | – | 943.81 ± 38 | –
[1], 379.15 K | – | 944.75 ± 38 | –
[1], 380.14 K | – | 946.17 ± 38 | –
[1], 381.15 K | – | 947.59 ± 38 | –
[1], 382.14 K | – | 949.01 ± 38 | –
[1], 383.14 K | – | 950.42 ± 38 | –
[1], 384.14 K | – | 951.84 ± 38 | –
[1], 385.15 K | – | 952.79 ± 38 | –
[1], 386.14 K | – | 954.2 ± 38 | –
[1], 387.14 K | – | 955.62 ± 38 | –
[1], 388.15 K | – | 957.04 ± 38 | –
[1], 389.15 K | – | 957.98 ± 38 | –
[1], 390.14 K | – | 959.4 ± 38 | –
[1], 391.15 K | – | 960.82 ± 38 | –
[1], 392.15 K | – | 961.77 ± 38 | –
[1], 393.15 K | – | 963.18 ± 39 | –
[1], 394.15 K | – | 964.13 ± 39 | –
[1], 395.15 K | – | 965.55 ± 39 | –
[1], 396.14 K | – | 966.96 ± 39 | –
[1], 397.14 K | – | 968.38 ± 39 | –
[1], 398.14 K | – | 969.8 ± 39 | –
[1], 399.14 K | – | 971.22 ± 39 | –
[1], 400.15 K | – | 972.16 ± 39 | –
[1], 401.14 K | – | 973.58 ± 39 | –
[1], 402.14 K | – | 975 ± 39 | –
[1], 403.15 K | – | 975.94 ± 39 | –
[1], 404.15 K | – | 977.36 ± 39 | –
[1], 405.14 K | – | 978.78 ± 39 | –
[1], 406.15 K | – | 979.72 ± 39 | –
[1], 407.14 K | – | 981.14 ± 39 | –
[1], 408.14 K | – | 982.56 ± 39 | –
[1], 409.14 K | – | 983.51 ± 39 | –
[1], 410.15 K | – | 984.92 ± 39 | –
[1], 411.15 K | – | 986.34 ± 39 | –
[1], 412.14 K | – | 987.76 ± 40 | –
[1], 413.15 K | – | 988.7 ± 40 | –
[1], 414.15 K | – | 990.12 ± 40 | –
[1], 415.15 K | – | 991.54 ± 40 | –
[1], 416.14 K | – | 992.96 ± 40 | –
[1], 417.15 K | – | 993.9 ± 40 | –
[1], 418.15 K | – | 995.32 ± 40 | –
[1], 419.15 K | – | 996.27 ± 40 | –
[1], 420.14 K | – | 997.68 ± 40 | –
[1], 421.15 K | – | 999.1 ± 40 | –
[1], 422.15 K | – | 1000 ± 40 | –
[1], 423.15 K | – | 1001.5 ± 40 | –
[1], 424.14 K | – | 1002.9 ± 40 | –
[1], 425.15 K | – | 1004.3 ± 40 | –
[1], 426.15 K | – | 1005.2 ± 41 | –
[1], 427.14 K | – | 1006.7 ± 41 | –
[1], 428.15 K | – | 1008.1 ± 41 | –
[1], 429.15 K | – | 1009 ± 41 | –
[1], 430.14 K | – | 1010.4 ± 41 | –
[1], 431.15 K | – | 1011.4 ± 41 | –
[1], 432.15 K | – | 1012.8 ± 41 | –
[2], 278.15 K | 1030.29 ± 2.8 | – | 1417.7 ± 3.7
[2], 283.15 K | 1026.21 ± 2.8 | – | 1400.3 ± 3.7
[2], 288.15 K | 1022.14 ± 2.7 | – | 1383.2 ± 3.7
[2], 293.15 K | 1018.08 ± 2.7 | – | 1366.2 ± 3.7
[2], 298.15 K | 1014.04 ± 2.7 | – | 1349.3 ± 3.7
[2], 303.15 K | 1010 ± 2.7 | – | 1332.7 ± 3.7
[2], 308.15 K | 1005.97 ± 2.7 | – | 1316.2 ± 3.7
[2], 313.15 K | 1001.94 ± 2.7 | – | 1299.8 ± 3.7
[2], 318.15 K | 997.92 ± 2.7 | – | 1283.6 ± 3.7
[2], 323.15 K | 993.9 ± 2.6 | – | 1267.6 ± 3.7
[2], 328.15 K | 989.89 ± 2.6 | – | 1251.8 ± 3.7
[2], 333.15 K | 985.88 ± 2.6 | – | 1236.1 ± 3.7
[2], 338.15 K | 981.88 ± 2.6 | – | 1220.5 ± 3.7
[2], 343.15 K | 977.88 ± 2.6 | – | 1205.2 ± 3.7
